Source: paper PMC11413854, “Reversible Control of Native GluN2B-Containing NMDA Receptors with Visible Light” (ACS Chemical Neuroscience, 2024)
Entries after “also recorded” stand apart in the source; their conditions may differ. Like-named read-outs stand apart in the source and are kept apart here. One block for each compound: values may come before it.

Biological target: T1, GluN1/GluN2B NMDA receptors (UniProt P35439+Q01097)
T1 construct: expressed in transfected cells; host or cells: Xenopus laevis oocytes (nuclear cDNA injection)
Assay: TEVC electrophysiology on Xenopus oocytes expressing wt GluN1/GluN2B NMDARs
Format: cell-based, rat GluN1, mouse GluN2B
Details: for remaining activity at 1 µM / remaining activity at 5 µM / remaining activity at 10 µM / remaining activity at 25 µM / remaining activity at 50 µM / remaining activity at 90 µM / remaining activity at 100 µM / remaining activity at 0.01 µM / remaining activity at 0.025 µM / remaining activity at 0.05 µM / remaining activity at 0.1 µM / remaining activity at 0.15 µM / remaining activity at 2 µM / remaining activity at 7.5 µM / remaining activity at 70 µM: GluN1/GluN2B wt, read-out: Relative current (IOpto/I0); for UV/dark IC50 ratio (365 nm PSS vs dark): preilluminated in solution; for shift in IC50 compared to parent compound: trans configuration (dark); for remaining activity at 0.01 µM: 0.010 µM; for remaining activity at 0.05 µM: 0.050 µM; for remaining activity at 0.1 µM: 0.100 µM; for remaining activity at 0.15 µM: 0.150 µM
From the text: The activity of OptoNAM-3 was functionally monitored by electrophysiology on Xenopus oocytes (see Methods). To assess the light-dependent effect, we tested the activities of the dark PSS (mostly trans) and the UV PSS (mostly cis, see above) separately. For each concentration, we prepared a solution divided into two samples: one in which the compound was kept in the dark for the duration of the experiment (dark PSS state); and the other that was preilluminated with either 350 or 365 nm light (350 or 365 nm PSS) and then kept away from the light for the duration of the experiment in order to avoid photoisomerization of the compounds by ambient light (see Methods). […] We generated dose–response curves of OptoNAM-3 dark and UV PSS on wild-type (wt) GluN1/GluN2B NMDA receptors (Figure 3A) in the presence of saturating concentrations of agonists (100 μM glutamate and glycine).
We used cDNA coding for rat GluN1–1a (named GluN1 herein) (GenBank: U08261.1), rat GluN2A (GenBank: D13211.1), mouse GluN2B (GenBank: D10651.2), rat GluA1 flop (GenBank: M36418.2), and rat Myc-GluA2(Q)-flip (GenBank: AF164344.1) cloned into pcDNA3-based expression plasmids. GluK2 (GenBank: Z11548.1) corresponds to the fully RNA-edited version.[80] The GluN2B-ΔNTD construct is from ref[45] and GluN2B–N615K is from ref[81]. Single mutants GluN2B-Q110G and GluN1-L135H were from ref[19]. The GluA2 cDNA contains a Myc tag ([…]) fused between the signal peptide and the N-terminus sequences, and the GluA2 subunit is […] for its Q/R/N site (GluA2(Q)) to allow permeation of homomeric GluA2 receptors.[2] cDNAs coding for rat GluN2C (GenBank: M91563.1) and GluN2D subunits (GenBank: L31611.1) were in prK5 plasmids.
Oocytes from Xenopus laevis were used for heterologous expression of recombinant NMDA receptors studied using a two-electrode voltage clamp (TEVC). Female Xenopus laevis were housed and ovary bags harvested according to the European Union guidelines (husbandry authorizations #C75–05–31 and #D75–05–31; project authorizations #05137.02; and Apafis #28867–2020121814485893). Fragments of ovary bags were also purchased from the “Centre de Ressources Biologiques Xenopes” (now TEFOR, Paris Saclay, France) and from the European Xenopus Resource Center (EXRC, Portsmouth, UK). Xenopus laevis oocytes were harvested and prepared as previously described in ref[82].
Expression of recombinant NMDA receptors was obtained by oocyte nuclear coinjection of 37 nL of a mixture of cDNAs (at 30 ng/μL) coding for GluN1–1a and various GluN2 subunits (ratio 1:1). The protocol in ref[43] was followed for the expression of GluN1/GluN2A/GluN2B triheteromers. The oocytes were transferred in 96-well plates filled with Barth solution (in mM: 88 NaCl, 1 KCl, 0.33 Ca(NO3)2, 0.41 CaCl2, 0.82 MgSO4, 2.4 NaHCO3, and 7.5 HEPES, pH adjusted to 7.3 with NaOH), supplemented with gentamicin ([…]) and 50 μM APV, a selective NMDA receptor antagonist. Plates were then stored at 18 °C for 24 h for GluN1/GluN2A expression and for 48––72 h for the expression of GluN1/Glu2B, GluN1/GluN2A/GluN2B, and mutants.
TEVC recordings were performed 1–3 days following injection. TEVC recordings were performed using an Oocyte Clamp amplifier OC-725 (Warner Instruments) and computer-controlled via a 1440A Digidata (Molecular Devices). Currents were sampled at 100 Hz and low-pass-filtered at 20 Hz using an 8-pole Bessel filter (900 Series, Frequency Devices Inc.).

[1] = 365 nm PSS, 100 µM glutamate + glycine, Xenopus oocytes, read-out: IC50 on GluN1/GluN2B receptors, preilluminated with 365 nm
[2] = Sup. Fig. 2G, trans isomer, source: this paper, read-out: activity (Ki or IC50)

T1 sequence (Q01097 27-1482, other chains not shown): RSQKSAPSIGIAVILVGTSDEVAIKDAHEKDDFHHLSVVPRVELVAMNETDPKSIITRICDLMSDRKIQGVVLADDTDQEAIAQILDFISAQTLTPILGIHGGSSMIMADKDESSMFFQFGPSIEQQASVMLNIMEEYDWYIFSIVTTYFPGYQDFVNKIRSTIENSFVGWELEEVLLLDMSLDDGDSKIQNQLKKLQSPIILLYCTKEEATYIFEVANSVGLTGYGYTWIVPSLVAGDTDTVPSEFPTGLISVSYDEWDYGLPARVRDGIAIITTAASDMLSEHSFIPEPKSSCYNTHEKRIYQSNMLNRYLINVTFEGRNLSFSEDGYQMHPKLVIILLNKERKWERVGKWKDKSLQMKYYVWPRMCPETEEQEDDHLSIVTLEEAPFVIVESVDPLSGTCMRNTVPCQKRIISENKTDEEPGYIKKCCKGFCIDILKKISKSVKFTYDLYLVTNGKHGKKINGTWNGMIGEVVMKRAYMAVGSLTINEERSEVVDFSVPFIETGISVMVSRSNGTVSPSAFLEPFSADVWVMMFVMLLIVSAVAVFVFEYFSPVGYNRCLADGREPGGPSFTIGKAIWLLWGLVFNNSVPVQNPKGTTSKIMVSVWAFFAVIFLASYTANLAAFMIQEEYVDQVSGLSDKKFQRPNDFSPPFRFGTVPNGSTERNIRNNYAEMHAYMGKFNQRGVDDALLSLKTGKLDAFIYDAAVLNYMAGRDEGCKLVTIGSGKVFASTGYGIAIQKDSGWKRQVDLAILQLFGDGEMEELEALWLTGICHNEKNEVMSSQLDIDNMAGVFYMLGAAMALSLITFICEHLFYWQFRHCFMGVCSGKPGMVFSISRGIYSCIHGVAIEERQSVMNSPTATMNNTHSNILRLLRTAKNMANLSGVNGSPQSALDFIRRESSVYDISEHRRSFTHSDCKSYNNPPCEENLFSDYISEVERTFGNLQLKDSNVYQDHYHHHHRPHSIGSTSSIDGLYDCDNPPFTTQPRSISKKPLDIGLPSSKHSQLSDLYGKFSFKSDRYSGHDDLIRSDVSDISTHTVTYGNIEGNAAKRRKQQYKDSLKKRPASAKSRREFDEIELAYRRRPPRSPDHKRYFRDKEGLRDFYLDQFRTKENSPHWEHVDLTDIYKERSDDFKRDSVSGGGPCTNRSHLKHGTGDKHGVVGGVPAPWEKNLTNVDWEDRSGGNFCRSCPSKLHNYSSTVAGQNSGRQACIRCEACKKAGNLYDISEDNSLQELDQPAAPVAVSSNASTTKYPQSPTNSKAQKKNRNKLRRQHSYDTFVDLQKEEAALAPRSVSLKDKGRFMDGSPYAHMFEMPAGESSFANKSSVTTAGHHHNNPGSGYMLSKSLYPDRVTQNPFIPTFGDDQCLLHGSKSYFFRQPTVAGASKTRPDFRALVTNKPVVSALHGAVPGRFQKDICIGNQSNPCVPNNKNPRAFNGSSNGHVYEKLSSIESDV

IC50 [1]: 117 ± 10 µM
remaining activity at 1 µM (365 nm PSS): 94.5%
remaining activity at 5 µM (365 nm PSS): 92.7%
remaining activity at 10 µM (365 nm PSS): 90%
remaining activity at 25 µM (365 nm PSS): 84.2%
remaining activity at 50 µM (365 nm PSS): 63.5%
remaining activity at 90 µM (365 nm PSS): 50%
remaining activity at 100 µM (365 nm PSS): 49.3%
remaining activity at 1 µM (dark PSS (trans)): 92.5%
remaining activity at 5 µM (dark PSS (trans)): 84.8%
remaining activity at 10 µM (dark PSS (trans)): 75.5%
remaining activity at 25 µM (dark PSS (trans)): 47.3%
remaining activity at 50 µM (dark PSS (trans)): 31.1%
remaining activity at 90 µM (dark PSS (trans)): 22.1%
remaining activity at 100 µM (dark PSS (trans)): 14.4%
IC50 [2]: 24 µM
UV/dark IC50 ratio (365 nm PSS vs dark) (Xenopus oocytes): 4.9 fold
shift in IC50 compared to parent compound: > 1000 fold
SMILES: Cc1cc(N)nc(/N=N/c2ccccc2)c1 [OptoNAM-2, (E)-4-methyl-6-(phenyldiazenyl)pyridin-2-amine]

IC50 (365 nm PSS, Xenopus oocytes, read-out: IC50 on GluN1/GluN2B receptors, pre-illuminated with 365 nm): 0.031 ± 0.029 µM
remaining activity at 0.01 µM (365 nm PSS): 69.6%
remaining activity at 0.025 µM (365 nm PSS): 50.1%
remaining activity at 0.05 µM (365 nm PSS): 44.8%
remaining activity at 0.1 µM (365 nm PSS): 34%
remaining activity at 0.15 µM (365 nm PSS): 21%
remaining activity at 0.01 µM (dark PSS (trans)): 68.3%
remaining activity at 0.025 µM (dark PSS (trans)): 45.6%
remaining activity at 0.05 µM (dark PSS (trans)): 39%
remaining activity at 0.1 µM (dark PSS (trans)): 29.7%
remaining activity at 0.15 µM (dark PSS (trans)): 15%
IC50 (dark PSS (trans), Xenopus oocytes, read-out: IC50 on GluN1/GluN2B receptors in the dark): 0.024 ± 0.026 µM
UV/dark IC50 ratio (365 nm PSS vs dark) (Xenopus oocytes): 1.3 fold
SMILES: CS(=O)(=O)Nc1ccc2nc(Cc3ccc(/N=N/c4ccccc4)cc3)[nH]c2c1 [OptoNAM-4, (E)-N-(2-(4-(phenyldiazenyl)benzyl)-1H-benzo[d]imidazol-6-yl)methanesulfonamide]
photodependence of activity on GluN1/GluN2B NMDARs (dark vs 365 nm PSS): not photodependent; also recorded: did not display any photodependence of activity

IC50 [1]: 37 ± 2 µM
remaining activity at 2 µM (365 nm PSS): 91.1%
remaining activity at 7.5 µM (365 nm PSS): 81.8%
remaining activity at 10 µM (365 nm PSS): 78%
remaining activity at 25 µM (365 nm PSS): 58.1%
remaining activity at 70 µM (365 nm PSS): 35%
remaining activity at 2 µM (dark PSS (trans)): 83.8%
remaining activity at 7.5 µM (dark PSS (trans)): 66.1%
remaining activity at 10 µM (dark PSS (trans)): 49.9%
remaining activity at 25 µM (dark PSS (trans)): 28.4%
remaining activity at 70 µM (dark PSS (trans)): 13.4%
IC50 [2]: 11 µM
UV/dark IC50 ratio (365 nm PSS vs dark) (Xenopus oocytes): 3.4 fold
shift in IC50 compared to parent compound: > 1000 fold
SMILES: Nc1ccnc(/N=N/c2ccccc2)c1 [OptoNAM-1, (E)-2-(phenyldiazenyl)pyridin-4-amine]
